According to article PMC6237811, “MutT homologue 1 (MTH1) catalyzes the hydrolysis of mutagenic O6-methyl-dGTP” (Nucleic Acids Research, 2018):

What was measured:
Assay type in all cases: biochemical
[1] = target: T1, human MTH1 (hMTH1, NUDT1) (Homo sapiens, UniProt P36639); assay: Michaelis-Menten kinetics of hydrolysis by purified MTH1 (PPiLight)
[2] = target: T2, rat MTH1 (rnMTH1, rnNUDT1) (Rattus norvegicus, UniProt P53369); assay: hydrolysis by […] purified enzyme, PPiLight assay, […] substrate
T2 construct: gene Nudt1

[3] = target: T1, human MTH1 (hMTH1, NUDT1); assay: Michaelis-Menten kinetics of hydrolysis by purified MTH1 (PPiLight); HPLC and LC-MS of product
zebrafish MTH1 (zfMTH1) = target: T3, zebrafish MTH1 (zfMTH1) (Danio rerio, UniProt Q7ZWC3); assay: hydrolysis by purified zfMTH1, malachite green and PPiLight assays
T3 construct: gene nudt1

[4] = target: Arabidopsis thaliana NUDT1 (atNUDT1, atNUDX1) (Arabidopsis thaliana, UniProt Q9CA40); assay: hydrolysis by […] purified enzyme, PPiLight assay, […] substrate
[5] = target: T4, mouse MTH1 (mmMTH1, mmNUDT1) (Mus musculus, UniProt P53368); assay: as above
T4 construct: gene Nudt1

Sequence of Arabidopsis thaliana NUDT1 (atNUDT1, atNUDX1) (Q9CA40 2-147): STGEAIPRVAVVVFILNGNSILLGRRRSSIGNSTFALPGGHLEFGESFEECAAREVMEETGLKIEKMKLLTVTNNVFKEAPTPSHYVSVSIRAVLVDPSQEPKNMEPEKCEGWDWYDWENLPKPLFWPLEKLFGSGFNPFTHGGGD
T3 sequence (Q7ZWC3 whole entry): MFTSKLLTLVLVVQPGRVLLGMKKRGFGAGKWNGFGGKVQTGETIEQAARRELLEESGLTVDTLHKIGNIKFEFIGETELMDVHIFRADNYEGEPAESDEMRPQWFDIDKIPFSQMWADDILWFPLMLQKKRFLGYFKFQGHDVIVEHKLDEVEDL

Row | SMILES | Km [1] [µM] | hydrolysis by 1.5 nM purified enzyme, PPiLight assay, 75 μM substrate [2] | Km [3] [µM] | hydrolysis by purified zfMTH1, malachite green and PPiLight assays (zebrafish MTH1 (zfMTH1)) | hydrolysis by 1.5 nM purified enzyme, PPiLight assay, 75 μM substrate [4] | hydrolysis by 1.5 nM purified enzyme, PPiLight assay, 75 μM substrate [5]
1 | COc1nc(N)nc2c1ncn2[C@@H]1O[C@H](COP(=O)(O)OP(=O)(O)OP(=O)(O)O)[C@@H](O)[C@H]1O [O6-methyl-GTP] | 236 ± 44 | – | – | – | – | –
2 | COc1nc(N)nc2c1ncn2[C@H]1C[C@H](O)[C@@H](COP(=O)(O)OP(=O)(O)OP(=O)(O)O)O1 [O6-methyl-dGTP] | – | MTH1 homologues from all tested species but E. coli were found to catalyze the hydrolysis of O6-methyl-dGTP | 15.6 ± 0.2 | The zfMTH1 enzyme displays considerable activity with O6-methyl-dGTP with a clear preference over dGTP | MTH1 homologues from all tested species but E. coli were found to catalyze the hydrolysis of O6-methyl-dGTP | MTH1 homologues from all tested species but E. coli were found to catalyze the hydrolysis of O6-methyl-dGTP
